Assays:
[1] = tested on: leukemic cells derived from ALL, AML, CML and CLL; test: Initial analysis of cytotoxicity in leukemic cells; assay type: cell-based; conditions: for toxicity to the leukemic cells tested: initial analysis of 12 compounds ALD-1 through ALD-12; for anti-leukemic activity: structure-activity summary
Description: (§1) The cells were seeded at an initial density of 50,000 cells per well in 100 μl of cell culture media constituted with or without drugs at increasing doses ranging from 1 to 10^7 fold. The assays were performed in 96-well cell culture plates which were maintained at 37° C. in 5% CO2 atmosphere for 24 h, 48 h, 72 h and 96 h. At the end of each incubation point; cell viability was measured by Cell Titer-Blue® Assay. The measurements were then expressed as the percentage of viable cells compared to the survival of respective control groups (untreated cells) defined as the maximum cell viability. The data obtained was further analyzed using Prism nonlinear regression software (Graphpad Software) for the curve-fitting and determination of IC50 values.

[2] = tested on: Gleevec resistant K562 cells; test: Cytotoxicity in Gleevec resistant K562 cells (Cell Titer-Blue); assay type: cell-based; conditions: for IC50: Homo sapiens, K562
Description: Hela (established from epithelioid cervical carcinoma), were purchased from the American Type Culture Collection (ATCC, Manassas, Va.). SN12C and ACHN cells were provided by Dr. Charles Sawyers. […] Normal lymphocyte 9093 was purchased from ATCC. K562 and normal lymphocytes were maintained in RPMI media (Life Technologies) supplemented with 20% fetal bovine serum (FBS). […] All cells were maintained at 37° C. under a humidified atmosphere of 95% air and 5% CO2.
as §1

[3] = target: T1, Src (Homo sapiens, UniProt P12931); test: Src phosphorylation in K562 cells, Western blotting; assay type: cell-based; conditions: FIGS. 9 and 10
T1 construct: reduced the levels of phosphorylated Src in K562 cells; endogenous in cells; host or cells: K562

[4] = target: T2, T315I mutant Bcr-Abl (Homo sapiens, UniProt P00519, T315I); test: Bcr-Abl phosphorylation in K562 cells, Western blotting; assay type: cell-based; conditions: in the presence of Gleevec, FIGS. 5 and 6
T2 construct: K562 cells that express the T315I mutant Bcr-Abl; BCR (fusion partner, P11274 N-terminal part); endogenous in cells; host or cells: K562 (Gleevec-resistant); the other entry of the earlier key: BCR (P11274, Breakpoint cluster region protein)

[5] = tested on: PARP cleavage in Gleevec-resistant CML cell lines; test: PARP cleavage (apoptosis marker), Western blotting; assay type: cell-based; conditions: FIG. 4
[6] = tested on: Crkl; test: Crkl phosphorylation in K562 cells, Western blotting; assay type: cell-based; conditions: FIG. 8
[7] = tested on: BV173-GFP, a Gleevec resistant chronic myeloid leukemic cells; test: Preclinical efficacy, BV173-GFP leukemia in NSG-B2m mice; assay type: in vivo; conditions: up to 250 mg/kg intraperitoneal for 5 weeks
Description: Two days after leukemia cell injection, the mice received intraperitoneal treatments of DMSO, or ALD-10 in DMSO. Following injection cells, the mice were randomized into two groups (6/group) to receive DMSO, or ALD-10. The mice received up to 250 mg/kg of ALD10 for 5 weeks. […] The median survival for ALD-10 and DMSO treated mice was 42 and 39 days, respectively.

[8] = target: T3, Lyn (Homo sapiens, UniProt P07948); test: Lyn phosphorylation in K562 cells, Western blotting; assay type: cell-based; conditions: FIG. 11
T3 construct: K562 cells were plated in 10 cm dishes; endogenous in cells; host or cells: K562

[9] = tested on: STAT5; test: STAT5 phosphorylation in K562 cells, Western blotting; assay type: cell-based; conditions: FIG. 7
[10] = target: T4, LCK (Homo sapiens, UniProt P06239); test: LCK phosphorylation in K562 cells, Western blotting; assay type: cell-based; conditions: FIG. 11
T4 construct: K562 cells were plated in 10 cm dishes; endogenous in cells; host or cells: K562

[11] = target: T5, Yes (Homo sapiens, UniProt P07947); test: Yes phosphorylation in K562 cells, Western blotting; assay type: cell-based; conditions: FIG. 11
T5 construct: K562 cells were plated in 10 cm dishes; endogenous in cells; host or cells: K562

[12] = tested on: Bcr-Abl; conditions: in vitro, more potent than imatinib; cited from earlier work

T3 sequence (P07948 whole entry): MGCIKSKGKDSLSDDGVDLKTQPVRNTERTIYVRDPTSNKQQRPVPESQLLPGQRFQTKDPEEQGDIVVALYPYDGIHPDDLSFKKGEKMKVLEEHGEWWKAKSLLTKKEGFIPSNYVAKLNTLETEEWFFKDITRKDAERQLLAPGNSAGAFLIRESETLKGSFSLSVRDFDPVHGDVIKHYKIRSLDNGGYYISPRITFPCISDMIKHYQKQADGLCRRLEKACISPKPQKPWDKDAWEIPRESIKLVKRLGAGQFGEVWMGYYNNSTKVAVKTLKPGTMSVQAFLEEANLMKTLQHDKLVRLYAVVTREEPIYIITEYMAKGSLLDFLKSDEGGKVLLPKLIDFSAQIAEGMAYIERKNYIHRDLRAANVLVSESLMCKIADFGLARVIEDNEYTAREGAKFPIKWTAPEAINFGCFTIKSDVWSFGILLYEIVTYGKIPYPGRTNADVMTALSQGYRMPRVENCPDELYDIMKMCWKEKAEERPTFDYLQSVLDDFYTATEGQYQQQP
T1 sequence (P12931 whole entry): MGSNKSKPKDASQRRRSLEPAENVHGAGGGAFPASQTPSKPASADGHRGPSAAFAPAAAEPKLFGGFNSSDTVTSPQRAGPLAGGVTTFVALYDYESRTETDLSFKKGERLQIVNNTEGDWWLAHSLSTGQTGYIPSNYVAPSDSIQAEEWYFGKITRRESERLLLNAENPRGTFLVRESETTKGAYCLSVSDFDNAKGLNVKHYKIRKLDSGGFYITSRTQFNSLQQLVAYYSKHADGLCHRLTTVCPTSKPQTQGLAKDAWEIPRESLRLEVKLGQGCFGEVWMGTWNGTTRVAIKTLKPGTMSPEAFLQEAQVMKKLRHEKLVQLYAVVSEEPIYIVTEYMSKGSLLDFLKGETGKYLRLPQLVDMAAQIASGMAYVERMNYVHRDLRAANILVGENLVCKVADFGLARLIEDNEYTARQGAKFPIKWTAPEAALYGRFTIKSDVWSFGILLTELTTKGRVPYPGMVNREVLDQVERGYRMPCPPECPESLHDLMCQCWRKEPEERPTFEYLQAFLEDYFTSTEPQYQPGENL
T4 sequence (P06239 whole entry): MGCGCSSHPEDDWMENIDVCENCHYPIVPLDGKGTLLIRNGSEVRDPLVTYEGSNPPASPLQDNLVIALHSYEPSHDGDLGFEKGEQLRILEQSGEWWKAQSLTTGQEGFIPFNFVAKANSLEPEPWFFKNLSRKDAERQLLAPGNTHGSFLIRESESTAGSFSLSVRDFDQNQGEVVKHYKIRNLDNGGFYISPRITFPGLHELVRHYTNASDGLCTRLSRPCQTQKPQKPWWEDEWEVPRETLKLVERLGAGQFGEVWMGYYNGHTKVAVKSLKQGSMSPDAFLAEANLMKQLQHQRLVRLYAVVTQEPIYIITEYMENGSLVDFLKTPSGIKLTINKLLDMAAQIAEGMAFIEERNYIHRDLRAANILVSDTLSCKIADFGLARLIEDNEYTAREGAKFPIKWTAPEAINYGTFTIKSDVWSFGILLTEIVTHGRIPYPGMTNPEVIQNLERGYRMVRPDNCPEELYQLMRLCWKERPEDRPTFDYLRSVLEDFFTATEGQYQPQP
T5 sequence (P07947 whole entry): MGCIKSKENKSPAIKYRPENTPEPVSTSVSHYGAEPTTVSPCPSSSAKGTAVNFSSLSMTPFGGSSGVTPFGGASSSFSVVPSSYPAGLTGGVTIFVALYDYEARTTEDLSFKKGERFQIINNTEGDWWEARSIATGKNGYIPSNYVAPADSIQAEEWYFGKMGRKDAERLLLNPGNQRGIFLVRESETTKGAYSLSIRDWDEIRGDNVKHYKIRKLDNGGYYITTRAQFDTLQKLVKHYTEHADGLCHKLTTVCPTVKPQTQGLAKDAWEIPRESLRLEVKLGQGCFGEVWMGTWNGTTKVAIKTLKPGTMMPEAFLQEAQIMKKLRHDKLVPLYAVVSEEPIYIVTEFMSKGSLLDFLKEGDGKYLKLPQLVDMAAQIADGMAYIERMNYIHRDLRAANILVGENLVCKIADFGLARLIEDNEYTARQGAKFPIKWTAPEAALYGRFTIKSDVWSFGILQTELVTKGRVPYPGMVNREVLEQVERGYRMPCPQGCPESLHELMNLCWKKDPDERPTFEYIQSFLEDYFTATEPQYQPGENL

Row | Compound | phosphorylation of Src [3] | phosphorylation of Bcr-Abl Kinase [4] | phosphorylation of Lyn [8] | phosphorylation of Lck [10] | toxicity to the leukemic cells tested [1] | cytotoxicity to Gleevec resistant CML (GRCML) ([2]; Gleevec resistant CML, cell line not named) | anti-leukemic activity [1] | PARP cleavage (apoptotic cell death) [5] | CrkL phosphorylation [6] | IC50 [2] [nM] | activity of the mice compared to DMSO treated mice [7] | liver tumor mass compared to DMSO treated mice [7] | median survival ([7]; DMSO 39 days, Log-rank P=0.0036, Gehan-Breslow-Wilcoxon P=0.0045) [days] | survival (Kaplan-Meier) ([7]; DMSO treated 40 days) [days] | STAT5 phosphorylation [9] | phosphorylation of Yes [11] | cytotoxicity (in words) ([2]; Gleevec resistant K562 cells, FIG. 1) | affinity for the ATP binding site on Bcr-Abl relative to imatinib [12]
1 | COC(=O)c1ccc(NC(=O)CSc2nc3cc4c(cc3cc2C)OCCO4)cc1 [ALD-1, 4-[2-(8-Methyl-2,3-dihydro-[1,4]dioxino[2,3-g]quinolin-7-ylsulfanyl)-acetylamino]-benzoic acid methyl ester] |  |  |  |  | non-toxic |  |  |  |  |  |  |  |  |  |  |  |  | 
2 | CCc1cc2cc3c(cc2nc1SCC(=O)Nc1ccc(OC)cc1OC)OCCO3 [ALD-4, N-(2,4-Dimethoxy-phenyl)-2-(8-ethyl-2,3-dihydro-[1,4]dioxino[2,3-g]quinolin-7-ylsulfanyl)-acetamide] | inhibited | block phosphorylation |  |  | toxic | highly cytotoxic | anti-leukemic activity |  |  |  |  |  |  |  |  |  |  | 
3 | CCc1cc2cc3c(cc2nc1SCC(=O)Nc1ccccc1C)OCCO3 [ALD-10, 2-(8-Ethyl-2,3-dihydro-[1,4]dioxino[2,3-g]quinolin-7-ylsulfanyl)-N-o-tolyl-acetamide] | inhibited | block phosphorylation | significantly inhibited | significantly inhibited | toxic |  | anti-leukemic activity | induction of PARP cleavage | inhibited | 74.6 | considerably more active | reduced liver tumor mass | 42 | 48 | inhibited | significantly inhibited |  | 
4 | Cc1cn(-c2cc(NC(=O)c3ccc(C)c(Nc4nccc(-c5cccnc5)n4)c3)cc(C(F)(F)F)c2)cn1 [Nilotinib] |  |  |  |  |  |  |  |  |  |  |  |  |  |  |  |  |  | up to 50 times

Further lines, with some results ahead:

Row | phosphorylation of Src [3] | phosphorylation of Bcr-Abl Kinase [4] | phosphorylation of Lyn [8] | phosphorylation of Lck [10] | Compound | toxicity to the leukemic cells tested [1] | cytotoxicity to Gleevec resistant CML (GRCML) ([2]; Gleevec resistant CML, cell line not named) | anti-leukemic activity [1] | PARP cleavage (apoptotic cell death) [5] | CrkL phosphorylation [6] | IC50 [2] [nM] | activity of the mice compared to DMSO treated mice [7] | liver tumor mass compared to DMSO treated mice [7] | median survival ([7]; DMSO 39 days, Log-rank P=0.0036, Gehan-Breslow-Wilcoxon P=0.0045) [days] | survival (Kaplan-Meier) ([7]; DMSO treated 40 days) [days] | STAT5 phosphorylation [9] | phosphorylation of Yes [11] | cytotoxicity (in words) ([2]; Gleevec resistant K562 cells, FIG. 1) | affinity for the ATP binding site on Bcr-Abl relative to imatinib [12]
5 | did not affect |  | not | not | CCc1cc2cc3c(cc2nc1SCC(=O)Nc1ccc(OC)cc1)OCCO3 [ALD-11, 2-(8-Ethyl-2,3-dihydro-[1,4]dioxino[2,3-g]quinolin-7-ylsulfanyl)-N-(4-methoxy-phenyl)-acetamide] | non-toxic |  | inactive | did not reveal PARP cleavage | did not affect |  |  |  |  |  | did not affect |  | not cytotoxic | 
6 | inhibited | block phosphorylation | significantly inhibited | significantly inhibited | CCc1cc2cc3c(cc2nc1SCC(=O)Nc1ccccc1OC)OCCO3 [ALD-12, 2-(8-ethyl-2,3-dihydro-[1,4]dioxino[2,3-g]quinolin-7-ylsulfanyl)-N-(2-methoxy-phenyl)-acetamide] | toxic |  | anti-leukemic activity | induction of PARP cleavage | inhibited | 69.7 |  |  |  |  | inhibited | significantly inhibited |  | 

Reference: patent US10639304B2, “Kinase inhibitors” (priority 2013, dated 2020)
